In one experiment the test system is tumor-bearing mice. Briefly: Survival time of tumor-bearing mice (ELE, CPT). Conditions: mouse, in vivo. The text has this:
(§1) The acceptable criterion for determining the anti-tumor efficacy of the formulation over the free ELE and PK-ELE-NP are the determination of the life span prolongation.
(§2) The number of dead cells in the peritoneal fluid of mice treated with PK-ELE-NP formulation increased life span when compared to free ELE.
(§3) The acceptable criterion for determining the anti-tumor efficacy of the formulation over the free drug and PK-CPT-NP are the determination of the life span prolongation. The number of dead cells in the peritoneal fluid of mice treated with PK-CPT-NP formulation increased life span when compared to free CPT.

The test system of experiment [1] is S180, ECS, HCS, ARS, U-14 and L615 transplanted tumor. Briefly: Growth of transplanted tumors. Conditions: 20 mg/kg. The format is in vivo, mice. The procedure: (§4) Male mice, weight 20-22 g, were used in the experiment. 1×10^7 tumor cells were injected to mouse and PK-HHT-NP injected intraperitoneally began second day. All mice were sacrificed on the 12th days, isolated the tumor and weighed and calculated the inhibition rate of tumor weight.
(§5) Male mice, weight 20-22 g, were used in the experiment. 1×10^7 tumor cells were injected to mouse and CUR and PK-CUR-NP injected intraperitoneally began second day. All mice were sacrificed on the 12th days, isolated the tumor and weighed and calculated the inhibition rate of tumor weight.
(§6) Male mice, weight 20-22 g, were used in the experiment. 1×10^7 tumor cells were injected to mouse and ELE injected intraperitoneally began second day. All mice were sacrificed on the 12th days, isolated the tumor and weighed and calculated the inhibition rate of tumor weight.
(§7) Male mice, weight 20-22 g, were used in the experiment. 1×10^7 tumor cells were injected to mouse and CPT injected intraperitoneally began second day. All mice were sacrificed on the 12th days, isolated the tumor and weighed and calculated the inhibition rate of tumor weight.

The test system of the next experiment is Lewis. Briefly: Growth of transplanted tumor, Lewis (tumor weight). The following applies: 20 mg/kg i.p. from second day, tumor weight on 12th day. The format is in vivo, mice. The procedure:
as §4, §5, §6, §7

The next experiment concerns S180. Briefly: Growth of transplanted tumor, S180 (tumor weight). The format is in vivo, mice. The following applies: 20 mg/kg i.p. from second day, tumor weight on 12th day. On the procedure: as §4, §5, §6, §7
The subject of the next experiment is tumor cells. Briefly: Stained dead tumor cells in peritoneal fluid of tumor-bearing mice (ELE, CPT). The following applies: 12th day of tumor inoculation. The format is in vivo.
Source text: as §1, §2, §3

Experiment [2] has as its system oral epidermoid carcinoma (KB). Briefly: Inhibition of tumor cell proliferation, KB. Conditions: 72 hours; for Inhibition (%): 50 ng/ml. The format is cell-based, human. On the procedure: Human tumor cell lines: Hela leukemia HL-60, malignant melanocarcinoma B16, oral epidermoid carcinoma (KB), lung carcinoma (A549), breast carcinoma MCF-7, adenocarcinoma of stomach.
Animal tumor cell lines: Walker carcinoma, LLC-WRC-256, malignant melanoma (RMMI 1846), 3T3, and S-180 sarcoma (CCRF-180). All lines were routinely cultured in the RPMI1640 medium supplemented 20% fetal calf serum. The experiment was carried out in 96 microplate, each well had 5×10^5 cells and given desired concentration of 1 μg/ml (1×10^−6 g/ml) drug. Then the plate was incubated at 37° C. in an atmosphere of humidified air enriched with 5 percent carbon dioxide for 72 hours.
Inhibition percent rate of tumor cell proliferation was obtained according to the bellow formula. [formula]
Animal tumor cell lines: Walker carcinoma, LLC-WRC-256, malignant melanoma (RMMI 1846), 3T3, and S-180 sarcoma (CCRF-180). All lines were routinely cultured in the RPMI1640 medium supplemented 20% fetal calf serum. The experiment was carried out in 96 microplate, each well had 5×10^5 cells and given desired concentration of 1 μg/ml (1×10^−6 g/ml) drug. Then the plate was incubated at 37° C. in an atmosphere of humidified air enriched with 5 percent carbon dioxide for 72 hours. Concentration of CUR or PK-CUR-NP is 50ng/ml.
Animal tumor cell lines: Walker carcinoma, LLC-WRC-256, malignant melanoma (RMMI 1846), 3T3, and S-180 sarcoma (CCRF-180). All lines were routinely cultured in the RPMI1640 medium supplemented 20% fetal calf serum. The experiment was carried out in 96 microplate, each well had 5×10^5 cells and given desired concentration of 1 μg/ml (1×10^−6 g/ml) drug. Then the plate was incubated at 37° C. in an atmosphere of humidified air enriched with 5 percent carbon dioxide for 72 hours. Concentration of ELE or PK-ELE-NP is 50 ng/ml.
Animal tumor cell lines: Walker carcinoma, LLC-WRC-256, malignant melanoma (RMMI 1846), 3T3, and S-180 sarcoma (CCRF-180). All lines were routinely cultured in the RPMI1640 medium supplemented 20% fetal calf serum. […]

On to `CC[C@@]1(O)C(=O)OCc2c1cc1n(c2=O)Cc2cc3ccccc3nc2-1` [CPT, Camptothecin], for which, in the experiment on tumor-bearing mice, the “Increase in life span T/C (%)” value is given as 144.3% and the “MST” value was determined as 33 ± 4.5 days. Moreover, the “growth of transplanted tumor” value in experiment [1] is “could inhibit the growth”. In the experiment on Lewis, the “Inhibition (%) of transplanted tumor” value was 60.8 ± 10.4%. In addition, the “Inhibition (%) of transplanted tumor” value with S180 was found to be 63.2 ± 12.1%. Besides, the “Number of stained dead tumor cells (1 × 10^6 cells mL^−1)” value with tumor cells was 5.36 ± 0.95 1 × 10^6 cells mL^−1.
In the case of `C=C1C[C@@]2(O)O[C@@]3(C[C@H]2C(C)C)[C@@H](C)CC[C@@H]13` [CUR, Curcumol], in experiment [2], the “Inhibition (%)” value was 60.8 ± 9.1%. Moreover, the “growth of transplanted tumor” value in experiment [1] is reported as “could inhibit the growth”. Besides, the entries for the “Inhibition (%) of transplanted tumor” value with Lewis and with S180 were 68.9 ± 7.8% and 63.7 ± 7.3%, respectively.
Take `COC(=O)C[C@](O)(CCCC(C)(C)O)C(=O)O[C@@H]1C(OC)=C[C@]23CCCN2CCc2cc4c(cc2[C@H]13)OCO4` [HHT, Homoharringtonine]: the inhibition at 1 µg/mL in experiment [2] (Homo sapiens, 1 μg/ml) was determined as 80 ± 8.5%. The entries for the “Inhibition (%) of transplanted tumor” value in the experiment on Lewis and in the experiment on S180 were 70 ± 6% and 76 ± 8%, respectively.
Eelemene: in experiment [2], the “Inhibition (%)” value is recorded as 60.2 ± 13.2%. In the experiment on tumor-bearing mice, the “Increase in life span T/C (%)” value is given as 144.3% and the “MST” value worked out at 33.2 days. In addition, the “growth of transplanted tumor” value in experiment [1] is on record as “could inhibit the growth”. The “Inhibition (%) of transplanted tumor” value in the experiment on Lewis stood at 65.8 ± 10.5%. In addition, the “Inhibition (%) of transplanted tumor” value in the experiment with S180 was found to be 67.57 ± 9.1%. The “Number of stained dead tumor cells (1 × 10^6 cells mL^−1)” value in the experiment on tumor cells is 5.80 ± 0.80 1 × 10^6 cells mL^−1.

As usually defined, the inhibition is how much of the control response was suppressed. The low end stands for a weak effect, the high end for a strong effect.

(Values after patent US20040192641A1, “Special preparation of anticancer drugs made by novel nanotechnology” (priority 2003, published 2004).)
